This note sets out measurements from US20220228054A1, “FLUORESCENT NAPHTHALIMIDE POLYMERS AND SOLUTIONS THEREOF FOR SCALE CONTROL IN AQUEOUS SYSTEMS” (NOURYON CHEMICALS INTERNATIONAL B.V., priority 2019, published 2022).

Holding throughout (format): physicochemical
Data set [1] can be described thus: Solubility in acrylic acid. The following applies: 1.39 g in 10.5 g of acrylic acid. Here is the method: The solubility of the monomer reaction product of Monomer Example 2 in acrylic acid was measured in the following manner. 10 g of acrylic acid was taken and the dried monomer reaction product of Monomer Example 2 was added in 0.2 g aliquots. The Monomer Example 2 reaction product started to become insoluble after 1.39 g was added. Next, 0.5 g of acrylic acid was added to form a clear solution. The final solution had 1.39 g of reaction product of Example 2 in 10.5 g of acrylic acid. The weight of reaction product of Example 2 was 11.7% of the total solution weight.

Data set [2] is described as follows: LC/FLD and GC/MS fluorescence of monomer species. The following applies: for excitation maximum: at the emission maximum; for emission maximum: zero order excitation. How it is done:
The sample of this example was initially analyzed by LC/MS to identify the retention times of target peaks. The same sample was then analyzed using similar, but weaker LC conditions by LC/FLD. The first step was to collect emission spectra with zero order excitation, this allows determining the emission maximum, which was 410 nm for the N-allyl-4-propoxy-1,8-naphthalimide and 450 nm for the N-allyl-4,5-dipropoxy-1,8-naphthalimide species.
The next step was to collect excitation spectra at the emission maximum for each compound. This allows determining the individual excitation maximum, which was 375 nm and 395 nm for the N-allyl-4-propoxy-1,8-naphthalimide and the N-allyl-4,5-dipropoxy-1,8-naphthalimide species respectively. The final step is to collect a chromatogram at the individual excitation and emission maxima. The latter two steps are each done with time programming the wavelengths, so each only require a single chromatogram.
Then the sample was analyzed by GC/MS to estimate the actual concentrations of the two components of interest. The ratio of the area percent by fluorescence and mass spec is the estimated relative fluorescence intensity. […] This assumes that the GC/MS area percent is the actual weight percent, which should be a close approximation.

A short description of the next data set: Solubility in water. Here is the method:
The procedure of Example 4 in RU2640339 was repeated. An initial charge of 84 g of deionized water and 1 g of ammonium persulfate was placed in a 250 ml glass reactor with inlet ports for an agitator, water cooled condenser, thermocouple. 15 g of acrylic acid (0.208 moles, 99.73 mole percent of polymer) was weighed into a beaker and then 0.15 g of N-allyl-4-methoxy-1,8-naphthalimide (Monomer Example 2, formula weight 267, 0.00056 moles, […] of polymer) was added to the beaker and mixed until the powdered fluorescent monomer dissolved. This solution was then added to the reactor, with stirring. The reaction mixture was very cloudy, indicating insolubility of the N-allyl-4-methoxy-1,8-naphthalimide in the reaction mixture. The reactor contents were slowly heated to 85° C. When the temperature reached about 80° C., a strong exotherm was observed. The reaction mixture started to thicken and within minutes, a sticky, intractable mass was formed and started to rise up the stir shaft. An attempt was made to remove some of the reaction product from the reactor and try and dissolve it in water.

The structures appear in SMILES notation.

On to `C=CCN1C(=O)c2cccc3c(OC)ccc(c23)C1=O` [Monomer Example 2, N-allyl-4-methoxy-1,8-naphthalimide], for which the “solubility in acrylic acid (weight of reaction product in clear solution)” value in data set [1] is 11.7 % of the total solution weight. With `C=CCN1C(=O)c2cccc3c(OCCC)ccc(c23)C1=O` [Monomer Example 3, N-allyl-4-propoxy-1,8-naphthalimide], in data set [2], the excitation maximum came to 375 nm and the emission maximum is recorded as 410 nm.

With `C=CCOc1ccc2c3c(cccc13)C(=O)N(CCC)C2=O` [Monomer Example 4, N-propyl-4-allyloxy-1,8-naphthalimide], the “solubility in water (in words)” value in the data set “Solubility in water” is listed as “insolubility”.

For the compound `C=CCN1C(=O)c2cccc3c(OCCOCCOCCOC)ccc(c23)C1=O` [Monomer Example 5, N-allyl-4-(methoxy, triethylene glycol) 1,8-naphthalimide], the solubility in water result in “Solubility in water” (25° C., pH 7) is on record as “less than 0.1 grams per 100 mis of water”.

With `C=CCN1C(=O)c2ccc(OCCC)c3c(OCCC)ccc(c23)C1=O` [N-allyl-4,5-dipropoxy-1,8-naphthalimide], in data set [2], the excitation maximum is listed as 395 nm and the emission maximum is reported as 450 nm.
